Test results as given in patent publication US20110004019A1, “Parakeratosis Inhibitor, Pore-Shrinking Agent, Or Rough Skin Inhibiting/Ameliorating Agent, And External Composition For Skin Containing The Same” (SHISEIDO COMPANY LTD., priority 2008, published 2011).

test system: IL-1α production in human normal keratinocytes; test: Inhibiting Effect of Increased Production of Inflammatory Cytokine Caused by Oleic Acid; assay type: cell-based; settings: 10 μM oleic acid + 500 μM test compound, 8 hours; solvent 4.7 ± 1.5; p < 0.01 vs. oleic acid
Method: LTD., were incubated using KGM culture medium in a 75 cm^2 flask for 3 days. The cells were trypsinized according to a normal method, collected, and then inoculated into a 24 well plate (Corning Inc.) so as to be 40,000 cells per 0.5 ml of KGM culture medium. After incubation for another 3 days, oleic acid, or oleic acid and test compound, were added thereto. […] As a control, ethanol was added instead of oleic acid. After 8 hours, each culture was collected, and the amount of IL-1α was measured with a quantification kit (from R&D systems).

SMILES | IL-lα (pmol/ml, Mean ± S.D.) [pmol/mL]
CCNC(=O)CC[C@H](NC(C)=O)C(=O)NCC [N-acetyl-N′,N″-diethyl-L-glutamic acid-1,5-diamide] | 225.5 ± 3.2

same assay, conditions: 10 μM oleic acid alone, 8 hours; solvent (ethanol) 4.7 ± 1.5

SMILES | IL-lα (pmol/ml, Mean ± S.D.) [pmol/mL]
CCCCCCCC/C=C\CCCCCCCC(=O)O [oleic acid, reference compound] | 239.8 ± 1.3

same assay, conditions: 10 μM oleic acid, 500 μM (0.012%) compound

SMILES | inhibition of the increased production of IL-1α caused by oleic acid (Table 6)
CCNC(=O)CC[C@H](NC(C)=O)C(=O)NCC [N-acetyl-N′,N″-diethyl-L-glutamic acid-1,5-diamide] | significantly inhibits the increased production of IL-1α

test system: cheek of sensory person (who has sensitive skin); test: Sensory Irritation Test; assay type: in vivo, human; settings: 3 mass % sample aqueous solution, 1 mL on cheek, ten minutes, n=2 (Table 4)
Method: Then, the irritating sensation was evaluated every 30 seconds for ten minutes immediately after the application, and a final evaluation was reported (n=2). The evaluation of the irritating sensation was based on the following rating criteria in four levels, and each average rating was calculated to be classified by the following criteria.
3: The test cannot be continued because of extremely strong irritation such as tingly, burning, prickly, and itching sensation. 2: The use is intolerable because of strong irritation such as tingly, burning, prickly, and itching sensation. 1: The use is tolerable though slight irritation such as tingly, burning, prickly, and itching sensation is felt. 0: The irritation is not particularly felt.
A: Average rating is less than 0.2 B: Average rating is 0.2 or greater to less than 1.0 C: Average rating is 1.0 or greater to less than 2.0 D: Average rating is 2.0 or greater

SMILES | Evaluation (sensory irritation)
CNC(CCC(=O)O)C(=O)O (racemic) [N-methyl-DL-glutamic acid] | A (Average rating is less than 0.2)
O=C(O)CC[C@H](NC(=O)OCc1ccccc1)C(=O)O [N-benzyloxycarbonyl-L-glutamic acid] | A (Average rating is less than 0.2)
NC(=O)N[C@@H](CCC(=O)O)C(=O)O [N-carbamoyl-L-glutamic acid] | A (Average rating is less than 0.2)
CN[C@@H](CCC(=O)O)C(=O)O [N-methyl-L-glutamic acid] | A (Average rating is less than 0.2)
NCCCC(=O)O [γ-aminobutyric acid, reference compound] | C (Average rating is 1.0 or greater to less than 2.0)

same assay, conditions: 3.0 mass % sample aqueous solution, 1 mL on cheek, ten minutes, n=2 (Table 5)

SMILES | Evaluation (sensory irritation)
N=C(N)NC(CCC(=O)O)C(=O)O (racemic) [N-amidino-DL-glutamic acid] | A (Average rating is less than 0.2)
N=C(N)N[C@H](CCC(=O)O)C(=O)O [N-amidino-D-glutamic acid] | A (Average rating is less than 0.2)
Cl.N=C(N)N[C@@H](CCC(=O)O)C(=O)O [N-amidino-L-glutamic acid hydrochloride] | A (Average rating is less than 0.2)
N=C(N)N[C@@H](CCC(=O)O)C(=O)O [N-amidino-L-glutamic acid] | A (Average rating is less than 0.2)
N=C(N)N[C@@H](CCC(=O)[O-])C(=O)[O-].[Na+].[Na+] [Sodium N-amidino-L-glutamate] | A (Average rating is less than 0.2)
NCCCC(=O)O [γ-aminobutyric acid, reference compound] | C (Average rating is 1.0 or greater to less than 2.0)

same assay, conditions: 3 mass %, test subject with sensitive skin

SMILES | sensory irritation (Tables 4 and 5)
N=C(N)NC(CCC(=O)O)C(=O)O (racemic) [N-amidino-DL-glutamic acid] | had no problem in sensory irritation
CNC(CCC(=O)O)C(=O)O (racemic) [N-methyl-DL-glutamic acid] | had no problem in sensory irritation
N=C(N)N[C@H](CCC(=O)O)C(=O)O [N-amidino-D-glutamic acid] | had no problem in sensory irritation
Cl.N=C(N)N[C@@H](CCC(=O)O)C(=O)O [N-amidino-L-glutamic acid hydrochloride] | had no problem in sensory irritation
N=C(N)N[C@@H](CCC(=O)O)C(=O)O [N-amidino-L-glutamic acid] | had no problem in sensory irritation
O=C(O)CC[C@H](NC(=O)OCc1ccccc1)C(=O)O [N-benzyloxycarbonyl-L-glutamic acid] | had no problem in sensory irritation
NC(=O)N[C@@H](CCC(=O)O)C(=O)O [N-carbamoyl-L-glutamic acid] | had no problem in sensory irritation
CN[C@@H](CCC(=O)O)C(=O)O [N-methyl-L-glutamic acid] | had no problem in sensory irritation
N=C(N)N[C@@H](CCC(=O)[O-])C(=O)[O-].[Na+].[Na+] [Sodium N-amidino-L-glutamate] | had no problem in sensory irritation
NCCCC(=O)O [γ-aminobutyric acid, reference compound] | resulted in giving sensory irritation

test system: back skin of hairless mouse (HR-1) applied with oleic acid; test: Test for Parakeratosis-Inhibiting Effect (oleic acid applied on the back of hairless mouse; rough skin visual score and parakeratosis value); assay type: in vivo; settings: 3.0 mass % sample after 10 mass % oleic acid, 3 days; control = 2.0
Method: 3 mass % test compound aqueous solution (containing 30 mass % ethanol) was primarily prepared as a sample solution. The pH was adjusted with hydrochloric acid or sodium hydroxide so as to be 7.0 to 7.5. When the solubility of test compound was low, the sample solution was prepared depending on the solubility.
100 μl of 10 mass % oleic acid solution (solvent: ethanol) was applied on the back of a hairless mouse (HR-1; Hoshino Laboratory Animals), and then 100 μl of the sample solution was applied thereon. […] In the evaluation, the condition of the skin on which the control (control aqueous solution) was applied set a score of 2.0 and the skin condition without roughness set a score of 0.0. Then, the skin condition was scored by visual observation in increments of 0.25 between them. At the same time, the stratum corneum at the back of the hairless mouse was peeled off with tape, the nuclei were stained by hematoxylin, and the degree of parakeratosis was observed and evaluated using a parakeratosis value within a range of 1.0 to 3.0 (in 0.25 increments). The higher the value is, the more the number of nucleated cell in the stratum corneum is, i.e., the more the parakeratosis is advanced.
The evaluation was conducted according to the plan which was approved in the in-house council on animal experiment, complying with Act on Welfare and Management of Animals and other related acts.

SMILES | Parakeratosis value (Average for 5 mice)
N=C(N)NC(CCC(=O)O)C(=O)O (racemic) [N-amidino-DL-glutamic acid] | 1.2
NC(=O)NCCC[C@H](N)C(=O)O [Citrulline, reference compound] | 2.0
CC(=O)N[C@@H](CCC(N)=O)C(=O)O [N-acetyl-L-glutamine, reference compound] | 1.9
N=C(N)N[C@H](CCC(=O)O)C(=O)O [N-amidino-D-glutamic acid] | 1.2
Cl.N=C(N)N[C@@H](CCC(=O)O)C(=O)O [N-amidino-L-glutamic acid hydrochloride] | 1.1
N=C(N)N[C@@H](CCC(=O)O)C(=O)O [N-amidino-L-glutamic acid] | 1.1
N=C(N)N[C@@H](CCC(=O)[O-])C(=O)[O-].[Na+].[Na+] [Sodium N-amidino-L-glutamate] | 1.1

same assay, conditions: 3 mass % sample after 10 mass % oleic acid, 3 days; tape-stripped stratum corneum, hematoxylin; higher = more parakeratosis; control = 2.0

SMILES | Parakeratosis value (Average for 4 mice)
CNC(CCC(=O)O)C(=O)O (racemic) [N-methyl-DL-glutamic acid] | 0.9
CC(=O)N[C@@H](CCC(=O)O)C(=O)O [N-acetyl-L-glutamic acid, reference compound] | 1.2
CC(=O)N[C@@H](CCC(N)=O)C(=O)O [N-acetyl-L-glutamine, reference compound] | 1.9
O=C(O)CC[C@H](NC(=O)OCc1ccccc1)C(=O)O [N-benzyloxycarbonyl-L-glutamic acid] | 0.9
NC(=O)N[C@@H](CCC(=O)O)C(=O)O [N-carbamoyl-L-glutamic acid] | 0.7
CN[C@@H](CCC(=O)O)C(=O)O [N-methyl-L-glutamic acid] | 0.8

same assay, conditions: 3 mass % sample after 10 mass % oleic acid, back of hairless mouse, 3 days; rough skin (desquamation and erythema) score, control = 2.0, no roughness = 0.0

SMILES | Visual observation value (Average for 4 mice)
CNC(CCC(=O)O)C(=O)O (racemic) [N-methyl-DL-glutamic acid] | 0.9
CC(=O)N[C@@H](CCC(=O)O)C(=O)O [N-acetyl-L-glutamic acid, reference compound] | 1.2
CC(=O)N[C@@H](CCC(N)=O)C(=O)O [N-acetyl-L-glutamine, reference compound] | 1.9
O=C(O)CC[C@H](NC(=O)OCc1ccccc1)C(=O)O [N-benzyloxycarbonyl-L-glutamic acid] | 0.9
NC(=O)N[C@@H](CCC(=O)O)C(=O)O [N-carbamoyl-L-glutamic acid] | 0.7
CN[C@@H](CCC(=O)O)C(=O)O [N-methyl-L-glutamic acid] | 0.8

same assay, conditions: 3 mass %, hairless mouse, oleic acid

SMILES | effect of inhibiting parakeratosis (Tables 1 and 2) | effects of inhibiting rough skin such as desquamation and erythema caused by unsaturated fatty acids (text on Table 1)
N=C(N)NC(CCC(=O)O)C(=O)O (racemic) [N-amidino-DL-glutamic acid] | lowered the parakeratosis value | –
CNC(CCC(=O)O)C(=O)O (racemic) [N-methyl-DL-glutamic acid] | – | showed the effects of inhibiting rough skin
NC(=O)NCCC[C@H](N)C(=O)O [Citrulline, reference compound] | did not show such effects | –
CC(=O)N[C@@H](CCC(=O)O)C(=O)O [N-acetyl-L-glutamic acid, reference compound] | inferior to those of the compounds of the present invention | –
CC(=O)N[C@@H](CCC(N)=O)C(=O)O [N-acetyl-L-glutamine, reference compound] | did not show such effects | did not show such effects
N=C(N)N[C@H](CCC(=O)O)C(=O)O [N-amidino-D-glutamic acid] | lowered the parakeratosis value | –
Cl.N=C(N)N[C@@H](CCC(=O)O)C(=O)O [N-amidino-L-glutamic acid hydrochloride] | lowered the parakeratosis value | –
N=C(N)N[C@@H](CCC(=O)O)C(=O)O [N-amidino-L-glutamic acid] | lowered the parakeratosis value | –
O=C(O)CC[C@H](NC(=O)OCc1ccccc1)C(=O)O [N-benzyloxycarbonyl-L-glutamic acid] | – | showed the effects of inhibiting rough skin
NC(=O)N[C@@H](CCC(=O)O)C(=O)O [N-carbamoyl-L-glutamic acid] | – | showed the effects of inhibiting rough skin
CN[C@@H](CCC(=O)O)C(=O)O [N-methyl-L-glutamic acid] | – | showed the effects of inhibiting rough skin
N=C(N)N[C@@H](CCC(=O)[O-])C(=O)[O-].[Na+].[Na+] [Sodium N-amidino-L-glutamate] | lowered the parakeratosis value | –

test system: back skin of hairless mice (HR-1) applied with oleic acid; test: Test for Ameliorating Effect to Rough Skin Induced by Applying Oleic Acid (TEWL); assay type: in vivo; settings: 3 mass % sample after 10 mass % oleic acid, 3 days, average of four mice; higher = worse rough skin; control = 12.0
Method: The difference was compared with the control (control aqueous solution), and the effect was determined. […] The TEWL was measured using TEWA Meter TM210 (Courage+Khazaka Electronic GmBH).
100 μl of 10 mass % oleic acid solution (solvent: ethanol) was applied on the back of hairless mice (HR-1, four mice per group), and then 100 μl of the sample solution was applied thereon. The day after this procedure was continued for 3 days, the TEWL value of the back was measured, and the average value of the four mice was calculated. The higher the TEWL value is, the worse rough skin becomes.

SMILES | TEWL value
CNC(CCC(=O)O)C(=O)O (racemic) [N-methyl-DL-glutamic acid] | 7.9
CC(=O)N[C@@H](CCC(=O)O)C(=O)O [N-acetyl-L-glutamic acid, reference compound] | 10.1
CC(=O)N[C@@H](CCC(N)=O)C(=O)O [N-acetyl-L-glutamine, reference compound] | 13.2
O=C(O)CC[C@H](NC(=O)OCc1ccccc1)C(=O)O [N-benzyloxycarbonyl-L-glutamic acid] | 6.8
NC(=O)N[C@@H](CCC(=O)O)C(=O)O [N-carbamoyl-L-glutamic acid] | 6.4
CN[C@@H](CCC(=O)O)C(=O)O [N-methyl-L-glutamic acid] | 6.4

same assay, conditions: 3 mass %, hairless mice, oleic acid

SMILES | ΔTEWL value compared with the control aqueous solution (text on Table 3)
CNC(CCC(=O)O)C(=O)O (racemic) [N-methyl-DL-glutamic acid] | significantly lowered the ΔTEWL value
CC(=O)N[C@@H](CCC(=O)O)C(=O)O [N-acetyl-L-glutamic acid, reference compound] | inferior to that of the compounds of the present invention
CC(=O)N[C@@H](CCC(N)=O)C(=O)O [N-acetyl-L-glutamine, reference compound] | did not show such effects
O=C(O)CC[C@H](NC(=O)OCc1ccccc1)C(=O)O [N-benzyloxycarbonyl-L-glutamic acid] | significantly lowered the ΔTEWL value
NC(=O)N[C@@H](CCC(=O)O)C(=O)O [N-carbamoyl-L-glutamic acid] | significantly lowered the ΔTEWL value
CN[C@@H](CCC(=O)O)C(=O)O [N-methyl-L-glutamic acid] | significantly lowered the ΔTEWL value
